Measurements reported in patent US20050059585A1, “Methionine aminopeptidase-2 inhibitors and methods of use thereof” (Praecis Pharmaceuticals Inc., priority 2000, published 2005).
Read-outs that look alike come from different tables or passages of the source. Square brackets hold non-standard residues; d marks the D form. Peptide text beside a SMILES is read from it. * marks the point of attachment. X2 = CO[C@@H]1[C@H](OC(=O)*)CC[C@]2(CO2)[C@H]1[C@@]1(C)O[C@@H]1CC=C(C)C; X3 = CO[C@@H]1[C@H](OC(=O)*)CC[C@]2(CO2)[C@H]1[C@@]1(C)O[C@@H]1CCC(C)C; Sar = CNCC(=O)O

Assays:
[1] = system: human umbilical vein endothelial cells (HUVEC); assay: human endothelial cell growth assay (Huvec assay); assay type: cell-based
Experimental: For the human endothelial cell growth assay, human umbilical vein endothelial cells (HUVEC) were maintained in Clonetics endothelial growth medium (EGM) in a 37° C. humidified incubator. Cells were detached with trypsin and pelleted by centrifugation at 300×g for 5 minutes at room temperature. HUVEC were added to 96-well plates at 5,000 cells/well. After incubating for 6 hours, the medium was replaced with 0.2 ml fresh EGM supplemented with 0.5 nM bFGF and the desired concentration of test angiogenesis inhibitor compound. Test angiogenesis inhibitor compounds were initially dissolved in ethanol at stock concentrations of either 10 mM or 0.1 mM, and subsequently diluted in EGM to obtain concentrations from […] to 10 μM. After 48 hours at 37° C., the medium was replaced with fresh bFGF-supplemented EGM and test angiogenesis inhibitor compound. Following incubation for an additional 48 hours at 37° C. MTT (3-[4,5-dimethylthiazol-2-yl]-2,5-diphenyl-tetrazolium bromide) was added to 1 mg/ml. After 2-4 hours at 37° C. the medium was replaced with 0.1 ml/well isopropanol. The plates were placed on a shaker for 15 minutes at room temperature and analyzed in a Labsystems Multiskan plate spectrophotometer at an optical density of 570 nm.

[2] = system: bovine aortic endothelial cell; assay: bovine aortic endothelial cell growth assay (Baec assay); assay type: cell-based
Experimental: The angiogenesis inhibitor compounds of the invention were tested for their ability to modulate human endothelial cell growth and for their ability to modulate the activity of MetAP2. The MetAP2 enzyme assay was performed essentially as described in Turk, B. et al. (1999) Chem. & Bio. 6: 823-833, the entire contents of which are incorporated herein by reference. The bovine aortic endothelial cell growth assay (Baec assay) was performed essentially as described in Turk, B. et al. (supra), the entire contents of which are incorporated herein by reference.

MetAP2 = target: T1, MetAP2 (Homo sapiens, UniProt P50579); assay: MetAP2 enzyme assay; assay type: biochemical
T1 construct: made in house; host or cells: insect cells
Experimental: Finally, the ability of the angiogenesis inhibitor compounds of the invention to modulate the activity of MetAP2 may be tested as follows.. Recombinant human MetAP2 may be expressed and purified from insect cells as described in Li and Chang, (1996) Biochem. Biophys. Res. Commun. 227:152-159. Various amounts of angiogenesis inhibitor compound is then added to buffer H (10 mM Hepes, pH 7.35, 100 mM KCl, 10% glycerol, and […]) containing lnM purified recombinant human MetAP2 and incubated at 37° C. for 30 minutes. To start the enzymatic reaction a peptide containing a methionine residue, e.g., Met-Gly-Met, is added to the reaction mixture (to a concentration of 1 mM). Released methionine is subsequently quantified at different time points (e.g., at 0, 2, 3, and 5 minutes) using the method of Zou et al. (1995) Mol. Gen Genetics 246:247-253).
The angiogenesis inhibitor compounds of the invention were tested for their ability to modulate human endothelial cell growth and for their ability to modulate the activity of MetAP2. The MetAP2 enzyme assay was performed essentially as described in Turk, B. et al. (1999) Chem. & Bio. 6: 823-833, the entire contents of which are incorporated herein by reference. […]

[3] = Homo sapiens, HUVEC, read-out: IC50 (pM), Huvec Assay
[4] = Bos taurus, BAEC, read-out: IC50 (pM), Baec Assay

T1 sequence (P50579 whole entry): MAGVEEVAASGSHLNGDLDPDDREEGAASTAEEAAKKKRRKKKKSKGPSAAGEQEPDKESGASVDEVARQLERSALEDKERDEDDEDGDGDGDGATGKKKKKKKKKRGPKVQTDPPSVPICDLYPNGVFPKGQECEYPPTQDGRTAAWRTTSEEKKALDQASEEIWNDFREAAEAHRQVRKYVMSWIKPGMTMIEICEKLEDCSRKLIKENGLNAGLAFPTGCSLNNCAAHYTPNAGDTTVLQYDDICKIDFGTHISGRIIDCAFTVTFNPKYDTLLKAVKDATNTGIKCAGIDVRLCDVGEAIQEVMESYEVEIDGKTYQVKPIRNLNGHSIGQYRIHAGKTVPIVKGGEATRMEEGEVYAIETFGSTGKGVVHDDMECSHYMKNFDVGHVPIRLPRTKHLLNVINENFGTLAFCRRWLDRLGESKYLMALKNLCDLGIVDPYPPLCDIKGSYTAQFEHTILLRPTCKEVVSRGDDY

| Structure (SMILES) | IC50 ([1]; read-out: IC50, Huvec Assay) [pM] | IC50 [2, 4] [pM] | also measured |
| --- | --- | --- | --- |
| CO[C@@H]1[C@H](OC(=O)NCC(=O)N[C@@H](CCCNC(=N)N)C(=O)NCC(=O)N[C@@H](CC(=O)O)C(N)=O)CC[C@]2(CO2)[C@H]1[C@@]1(C)O[C@@H]1CCC(C)C [Example 15] (X3-GRGD-NH2) | > 1e+07 | – | – |
| CO[C@@H]1[C@H](OC(=O)N[C@@H](C(=O)O)C(C)C)CC[C@]2(CO2)[C@H]1[C@@]1(C)O[C@@H]1CC=C(C)C [Example 24, 2-{(3R, 4S, 5S, 6R)-5-Methoxy-4-[(2R, 3R)-2-methyl-3-(3-methyl-but-2-enyl)-oxiranyl]-1-oxa-spiro[2.5]oct-6-yloxycarbonylamino}-3-methyl-butyric acid] | – | – | IC50 [1, 3]: 5440 pM |
| COC(=O)[C@H](NC(=O)O[C@@H]1CC[C@]2(CO2)[C@@H]([C@@]2(C)O[C@@H]2CC=C(C)C)[C@@H]1OC)c1ccccc1 [Example 4, {(3R, 4S, 5S, 6R)-5-Methoxy-4-[(2R, 3R )-2-methyl-3-(3-methyl-but-2-enyl)-oxiranyl]-1-oxa-spiro[2.5]oct-6-yloxycarbonylamino}-phenyl-acetic acid methyl ester] | – | 35 | IC50 [1, 3]: 36 pM |
| CCC(C)C(NC(=O)O[C@@H]1CC[C@]2(CO2)[C@@H]([C@@]2(C)O[C@@H]2CC=C(C)C)[C@@H]1OC)C(=O)OC (some centres unmarked) [Example 10] | – | 179 | – |
| CO[C@@H]1[C@H](OC(=O)NCC(=O)N[C@@H](CCCNC(=N)N)C(=O)NC[C@@H](O)N[C@@H](CC(=O)O)C(=O)N[C@@H](CO)C(=O)N2CCCC2C(N)=O)CC[C@]2(CO2)[C@H]1[C@@]1(C)O[C@@H]1CC=C(C)C (some centres unmarked) [Example 13] | > 1e+07 | – | IC50 (MetAP2): 2.9 nM |
| CO[C@@H]1[C@H](OC(=O)NCC(=O)N2CCC[C@H]2C(=O)N[C@@H](CC(C)C)C(=O)N(C)CC(=O)O)CC[C@]2(CO2)[C@H]1[C@@]1(C)O[C@@H]1CC=C(C)C [Example 18, N-Carbamoyl (ID#26) (3R, 4S, 5S, 6R) 5-methoxy-4-[(2R,3R)2-methyl-3-(3methyl-but-2-enyl)-oxiranyl]-1-oxa-spiro[2.5]oct-6-yl ester] (X2-GPL[Sar]-OH) | > 100000 | – | – |
| CO[C@@H]1[C@H](OC(=O)N[C@@H](C(N)=O)C(C)C)CC[C@]2(CO2)[C@H]1[C@@]1(C)O[C@@H]1CCC(C)C [Example 6, (1-Carbamoyl-2-methyl-propyl)-carbamic acid-(3R, 4S, 5S, 6R )-5-methoxy-4-[(2R, 3R)-2-methyl-3-(3-methyl-butyl)-oxiranyl]-1-oxa-spiro[2.5]oct-6-yl ester] | – | 220 | – |
| CO[C@@H]1[C@H](OC(=O)N[C@@H](C(=O)N[C@@H](CO)C(N)=O)C(C)C)CC[C@]2(CO2)[C@H]1[C@@]1(C)O[C@@H]1CC=C(C)C [Example 11] | – | – | IC50 ([2]; Bos taurus, BAEC, read-out: IC50, Baec Assay): > 100000 pM |
| COC(=O)[C@H](NC(=O)O[C@@H]1CC[C@]2(CO2)[C@@H]([C@@]2(C)O[C@@H]2CC=C(C)C)[C@@H]1OC)C(C)(C)C [Example 8, 2-{(3R, 4S, 5S, 6R )-5-Methoxy-4-[(2R, 3R)-2-methyl-3-(3-methyl-but-2-enyl)-oxiranyl]-1-oxa-spiro[2.5]oct-6-yloxycarbonylamino}-3,3-dimethyl-butyric acid methyl ester] | – | 313 | – |
| CO[C@@H]1[C@H](OC(=O)NCC(=O)N2CCC[C@H]2C(=O)N[C@@H](CC(C)C)C(=O)NCC(=O)O)CC[C@]2(CO2)[C@H]1[C@@]1(C)O[C@@H]1CC=C(C)C [Example 19, N-Carbamoyl (ID#27) (3R, 4S, 5S, 6R) 5-methoxy-4-[(2R,3R)2-methyl-3-(3-methyl-but-2-enyl)-oxiranyl]-1-oxa-spiro [2.5]oct-6-yl ester] (X2-GPLG-OH) | > 100000 | – | IC50 ([2]; read-out: IC50, Baec Assay): > 100000 pM |
| COC(=O)[C@H](NC(=O)O[C@@H]1CC[C@]2(CO2)[C@@H]([C@@]2(C)O[C@@H]2CC=C(C)C)[C@@H]1OC)C1CCCCC1 [Example 9, Cyclohexyl-2-{(3R, 4S, 5S, 6R )-5-Methoxy-4-[(2R, 3R)-2-methyl-3-(3-methyl-but-2-enyl)-oxiranyl]-1-oxa-spiro[2.5]oct-6-yloxycarbonylamino}-acetic acid methyl ester] | – | 165 | – |
